Measurements reported in patent publication US11285130B2, “Treatment of mitochondrial diseases” (Khondrion IP B.V., priority 2017, dated 2022).
Where two headings read alike, the source gives them in different places.

How the values were obtained:
[1] = system: primary human fibroblasts from patients with Leigh syndrome; experiment: Oxidative stress-induced cell death (BSO) assay, Leigh patient fibroblasts; format: cell-based
Source text: (§1) To determine the effective concentration of the compounds (the concentrations that protect patient cells against oxidative stress-induced cell death) the applicant established an assay using stressed primary human fibroblasts from patients with Leigh syndrome, MELAS or LHON diseases. Utilising the inherent oxidative stress of fibroblasts from patients with mitochondrial disease, their oxidative burden was further increased by depleting cellular glutathione with an inhibitor of glutathione synthesis, L-buthionine-(S,R)-sulfoximine (BSO). […] Cells were seeded at a density of 3000 cells/well in a 96-well format and incubated with increasing concentrations of compounds in combination with BSO (100 μM, Sigma-aldrich). One day after treatment, the cells were washed twice and stained with a solution of 5 μM calcein-AM (Life technologies C3100MP) during 25 min in 199 medium without phenol red (Life technologies, 11043-023) at room temperature. After 2 washes with PBS (Phosphate buffered saline) the plate was read on a fluorescence plate reader (Fluostar Omega, BMG labtech) and the percentage of cell viability determined as a function of fluorescence intensity.

[2] = system: primary human fibroblasts from patients with MELAS; experiment: Oxidative stress-induced cell death (BSO) assay, MELAS patient fibroblasts; format: cell-based; settings: fibroblasts derived from MELAS patients, 100 μM BSO; read-out: EC50, protection from oxidative stress-induced cell death
Source text: as §1

[3] = system: primary human fibroblasts from patients with LHON; experiment: Oxidative stress-induced cell death (BSO) assay, LHON patient fibroblasts; format: cell-based; settings: fibroblasts derived from LHON patients, 100 μM BSO; read-out: EC50, protection from oxidative stress-induced cell death
Source text: as §1

[4] = SAD study pharmacokinetic analysis; format: in vivo, human
Protocol: (§2) Dose escalation to the next dose level was done after evaluation of the safety and the first 24-hour pharmacokinetic results of the previous dose. […] Anticipated exposures at this starting dose were just below the Minimum Anticipated Biological Effect Level (MABEL). Placebo (an in taste and appearance matching oral liquid) was also administered orally on one occasion in the single-ascending dose part and b.i.d. for 7 Days in the MAD part. […] All samples were stored at <-70° C. until analysis. […] For mean value calculations, all values below the limit of quantification (LOQ) were set to zero. […] The non-compartmental pharmacokinetic analysis was performed using Phoenix, Version 6.3 (Pharsight Corporation, Mountain View, Calif., USA). […] The PK parameters were calculated on the basis of the actual blood sampling time points relative to dosing. Selected pharmacokinetic parameters (Cmax, tmax, t1/2, AUClast and AUC0-int) following single-dose administration and selected pharmacokinetic parameters Cmax, tmax, [NT], the accumulation factor (Racc) and time to reach steady state) following multiple dose administration were determined. In urine, the percentage of dose excreted in urine was determined for the single- and multiple-dose administration.

[5] = MAD study pharmacokinetic analysis; format: in vivo, human; settings: for AUCtau (Geomean) / Cmax (Geomean) / tmax* (median) / Racc (accumulation ratio, Geomean): MAD
Protocol: as §2

## COC1=C(OC)C(=O)C(CCCCCCCCCCO)=C(C)C1=O [Idebenone, reference compound]
[1]; Homo sapiens, in vitro fibroblast assays (Redox assay), fibroblast type not given, values match Leigh, read-out: EC50
  EC50: 1470 nM

## CC1=C(C)C(=O)C(CC[C@](C)(O)C(=O)N[C@@H]2CCCNC2)=C(C)C1=O [KH176m]
[1]; fibroblasts derived from Leigh patients, 100 μM BSO, one day, calcein-AM viability, read-out: EC50 (half maximum effective concentration), protection from oxidative stress-induced cell death
  EC50: 16 nM
[1]; in vitro fibroblast assays (Redox assay), fibroblast type not given, values match Leigh
  EC50 expressed in ng/mL: around 5.8 ng/mL
[1]; in vitro fibroblast assays (Redox assay), fibroblast type not given, values match Leigh, read-out: EC50
  EC50: 16 nM
[2]
  EC50: 14 nM
[3]
  EC50: 4 nM
[4]; 100 mg, fed versus fasted
  AUC0-inf ratio (fed/fasted), 90% CI: 0.90 (90% Cl 0.57-1.41)
[4]; SAD, KH176 10 mg, fasted
  AUC0-inf (Geomean): 234 ng·h/mL
  AUClast (Geomean): 151 ng·h/mL
  Cmax (Geomean): 14.2 ng/mL
  t1/2 (Geomean): 16.6 h
  tmax* (median): 1.25 h
[4]; SAD, KH176 30 mg, fasted
  AUC0-inf (Geomean): 881 ng·h/mL
  AUClast (Geomean): 547 ng·h/mL
  Cmax (Geomean): 49.4 ng/mL
  t1/2 (Geomean): 17.8 h
  tmax* (median): 1.50 h
[4]; SAD, KH176 100 mg, fasted
  AUC0-inf (Geomean): 2690 ng·h/mL
  AUClast (Geomean): 1810 ng·h/mL
  Cmax (Geomean): 168 ng/mL
  t1/2 (Geomean): 15.4 h
  tmax* (median): 1.25 h
[4]; SAD, KH176 100 mg, fed
  AUC0-inf (Geomean): 2410 ng·h/mL
  AUClast (Geomean): 1590 ng·h/mL
  Cmax (Geomean): 117 ng/mL
  t1/2 (Geomean): 14.9 h
  tmax* (median): 2.50 h
[4]; SAD, KH176 300 mg, fasted
  AUC0-inf (Geomean): 6890 ng·h/mL
  AUClast (Geomean): 4830 ng·h/mL
  Cmax (Geomean): 497 ng/mL
  t1/2 (Geomean): 14.3 h
  tmax* (median): 1.24 h
[4]; SAD, KH176 800 mg, fasted
  AUC0-inf (Geomean): 18700 ng·h/mL
  AUClast (Geomean): 11700 ng·h/mL
  Cmax (Geomean): 1100 ng/mL
  t1/2 (Geomean): 17.2 h
  tmax* (median): 1.50 h
[4]; SAD, KH176 2000 mg, fasted
  AUC0-inf (Geomean): 41300 ng·h/mL
  AUClast (Geomean): 23900 ng·h/mL
  Cmax (Geomean): 1780 ng/mL
  t1/2 (Geomean): 18.9 h
  tmax* (median): 1.75 h
[4]; SAD, approximate, across dose groups
  t1/2: approximately 16 h
[4]; fasted condition (100 mg)
  median tmax: approximately 1 h
[4]; fed condition (100 mg, high calorie/high fat breakfast)
  median tmax: 2.5 h
[5]; KH176 100 mg b.i.d, Day 1
  AUCtau (Geomean): 702 ng·h/mL
  Cmax (Geomean): 99.4 ng/mL
  tmax* (median): 1.50 h
[5]; KH176 100 mg b.i.d, Day 7
  AUCtau (Geomean): 1310 ng·h/mL
  Cmax (Geomean): 152 ng/mL
  Racc (accumulation ratio, Geomean): 1.86
  tmax* (median): 1.00 h
[5]; KH176 200 mg b.i.d, Day 1
  AUCtau (Geomean): 1680 ng·h/mL
  Cmax (Geomean): 251 ng/mL
  tmax* (median): 1.75 h
[5]; KH176 200 mg b.i.d, Day 7
  AUCtau (Geomean): 2220 ng·h/mL
  Cmax (Geomean): 250 ng/mL
  Racc (accumulation ratio, Geomean): 1.32
  tmax* (median): 1.50 h
[5]; KH176 400 mg b.i.d, Day 1
  AUCtau (Geomean): 3600 ng·h/mL
  Cmax (Geomean): 550 ng/mL
  tmax* (median): 1.25 h
[5]; KH176 400 mg b.i.d, Day 7
  AUCtau (Geomean): 4270 ng·h/mL
  Cmax (Geomean): 450 ng/mL
  Racc (accumulation ratio, Geomean): 1.19
  tmax* (median): 1.50 h
[5]; steady state, 100 mg BID
  AUCtau (one dosing interval, 12 hours), range: 851 to 1570 ng·h/mL
  average concentrations, range: 70.9 to 130.8 ng/mL
[5]; steady state, 100 mg BID, healthy subjects
  maximum concentration, range: 89.4 to 204 ng/mL
